Here are results for eleven molecules from PMC3423582 (Bioorganic & medicinal chemistry letters, 2012).

Entries after “also recorded” stand apart in the source; their conditions may differ.

The test system of experiment [1] is seven cell lines (MCF7, HT-1080, U2OS, RKO, H1299, BJ-TERT, BJ-TERT/LT/ST/RAS^V12). Description: Lethality across the panel of seven cell lines. The experiment is classed as cell-based. Conditions: summary of Table 1.
Experiment [2] concerns BJ-TERT/LT/ST/RAS^V12. The conditions noted are these: read-out: EC50 (BJ-TERT/LT/ST/RAS^V12); cited from earlier work.
The test system of experiment [3] is BJ-TERT. Conditions: read-out: EC50 (BJ-TERT); cited from earlier work.
The subject of experiment [4] is BJ-TERT/LT/ST/RAS^V12. Description: Lethality. Conditions: ratio of LC50 values. The experiment is classed as cell-based.
Experiment [5] concerns BJ-TERT. Description: Cell death by photograph after 24 hours. The experiment is classed as cell-based. Conditions: compound 27 30 µM, staurosporine 1 µM.
The test system of experiment [6] is BJ-TERT/LT/ST/RAS^V12. Description: Cell death by photograph after 24 hours. The experiment is classed as cell-based. The conditions noted are these: compound 27 30 µM, staurosporine 1 µM.
The test system of experiment [7] is caspase 3/7 in BJ-TERT cells. Description: Caspase 3/7 activation. The experiment is classed as cell-based. Conditions: 28 hours, two-fold 14-point dilution series, Apo-ONE.
Experiment [8] relates to caspase 3/7 in BJ-TERT/LT/ST/RAS^V12 cells. Description: Caspase 3/7 activation. The experiment is classed as cell-based. The conditions noted are these: 28 hours, two-fold 14-point dilution series, Apo-ONE.
Another experiment concerns HT1080 cells. Description: Modulatory profiling: suppression of lethality by biologically active compounds. The experiment is classed as cell-based, human. Conditions: z-VAD-fmk (45 µM) or Boc-D-fmk (50 µM).
For experiment [9], the system named is BJ-TERT/LT/ST/RAS^V12. Description: Kinetic analysis of induced cell death. The experiment is classed as cell-based. Conditions: treated at the LC90 (30 µM).

Regarding `CC(C)(C)OC(=O)N1CCc2c(n(C(=O)OC(C)(C)C)c3ccccc23)C1CC=O` (centres unmarked) [Compound 13], in [1], the “Lethality across the seven cell lines (in words)” value was “showed lethality in at least five cell lines”.

With `CCOc1ccccc1-n1c(C(C)N2CCN(C(=O)COc3ccc(Cl)cc3)CC2)nc2ccccc2c1=O` (centres unmarked) [erastin], the figures for the EC50 in the experiment with BJ-TERT/LT/ST/RAS^V12 [2] and in the experiment on BJ-TERT [3] were 3.9 µM and 23.7 µM, respectively.

Regarding `CN1C(=O)C(C2NC=Cc3c2[nH]c2ccccc32)C(=O)N(C)C1=O` (centres unmarked) [Compound 2a, 5-(2,9-dihydro-1H-pyrido[3,4-b]indol-1-yl)-1,3-dimethylpyrimidine-2,4,6(1H,3H,5H)-trione], in the experiment with BJ-TERT/LT/ST/RAS^V12 [4], the “Enhancement of lethality compared with compound 1 in BJ-TERT/LT/ST/RAS^V12” value is reported as “two-fold more lethal”. The “Lethality across the seven cell lines (in words)” value in [1] is reported as “showed lethality in at least five cell lines”.

Regarding `CC(C=O)C1c2c(c3ccccc3n2C(=O)OC(C)(C)C)CCN1C(=O)OC(C)(C)C` (centres unmarked) [Compound 20], the “Lethality across the seven cell lines (in words)” value in experiment [1] is listed as “showed lethality in at least five cell lines”.

Turning to `CCOC(=O)C1c2[nH]c3ccccc3c2CCN1C(=O)OCc1ccccc1` (centres unmarked) [Compound 29], the “Lethality across the seven cell lines (in words)” value in experiment [1] is on record as “showed lethality in at least five cell lines”.

On to `CC(CC1C(=O)N(C)C(=O)N(C)C1=O)C1c2c(c3ccccc3n2C(=O)OC(C)(C)C)CCN1C(=O)OC(C)(C)C` (centres unmarked) [Compound 21], for which, in experiment [1], the “Lethality across the seven cell lines (in words)” value is reported as “modest to good potency in six cell lines; also recorded: showed lethality in at least five cell lines”.

As for `COC(=O)c1ccc(C2c3[nH]c4ccccc4c3CC(C(=O)OC)N2C(=O)CCl)cc1` (centres unmarked) [RSL3], the EC50 in the experiment with BJ-TERT/LT/ST/RAS^V12 [2] is 0.365 µM; in the experiment on BJ-TERT [3], 2.8 µM.

On to `COC(OC)C1c2[nH]c3ccccc3c2CCN1C(=O)OCc1ccccc1` (centres unmarked) [Compound 34], for which, in experiment [1], the “Lethality across the seven cell lines (in words)” value is recorded as “showed lethality in at least five cell lines”.

On to `CN1C(=O)C(Cc2nccc3c4ccccc4n(C)c23)C(=O)N(C)C1=O` [Compound 8], for which, in experiment [1], the “Lethality across the seven cell lines (in words)” value is given as “slightly more active”.

Consider `CN[C@@H]1C[C@H]2O[C@@](C)([C@@H]1OC)n1c3ccccc3c3c4c(c5c6ccccc6n2c5c31)C(=O)NC4` [Staurosporine, reference compound], for which the “Cell death in BJ-TERT cells” value with BJ-TERT [5] is reported as “induced cell death”. The “Cell death in BJ-TERT/LT/ST/RAS^V12 cells” value with BJ-TERT/LT/ST/RAS^V12 [6] is recorded as “induced cell death”.

With `CCOC(=O)C1c2c(c3ccccc3n2C)CCN1C(=O)OC` (centres unmarked) [Compound 27], the “Cell death in BJ-TERT cells” value in the experiment on BJ-TERT [5] is “not BJ-TERT”. Further, in the experiment on BJ-TERT/LT/ST/RAS^V12 [4], the “Enhancement of lethality compared with compound 1 in BJ-TERT/LT/ST/RAS^V12” value is “four fold enhancement”. The “Caspase 3/7 activation in BJ-TERT” value in experiment [7] is reported as “does not induce caspase activation”. The “Caspase 3/7 activation in BJ-TERT/LT/ST/RAS^V12” value in experiment [8] is on record as “failed to induced caspase 3/7 activation”. Also, in the experiment on HT1080 cells, the “Effect of caspase inhibitors on the compound's lethality” value is “not inhibited”. Also, the “Lethality across the seven cell lines (in words)” value in [1] is “showed lethality in at least five cell lines; also recorded: effective in inducing cell death in six out of seven cell lines”. In addition, the “Cell death in BJ-TERT/LT/ST/RAS^V12 cells” value with BJ-TERT/LT/ST/RAS^V12 [6] is on record as “observed only in BJ-TERT/LT/ST/RAS^V12 cells”. Moreover, in the experiment with BJ-TERT/LT/ST/RAS^V12 [9], the “Time at which compound started to kill cells” value is at most 12 h and the “Time to complete cell death” value was at most 24 h.
